Assay results as given in patent US20100311700A1, “Transdermal preparation for external use containing nonsterioidal antiinflammatory/analgesic agent” (Hisamitsu Pharmaceutical Co., Inc., priority 2005, published 2010).

Tests used:
Format in all cases: in vivo
Balb/c mice [1] = experiment: Murine auricular photo-irradiation test (ear edema after 2% ketoprofen + UVA); conditions: UVA 40 J/cm^2, toward the KP group
Protocol: The following experiments were carried out by referring to the method of Gerberick et al. (Food Chem. Toxicol., 27, 813-819 (1989) and modifying a part of it. Namely, as a test animal, Balb/c mice (female, 9-11 weeks old) were used. Each test substance {4-tert-butyl-4′-methoxydibenzoylmethane (BM-DBM), 2-ethylhexyl dimethoxybenzylidenedioxoimidazolidinepropionate (DB-D1H), terephthalylidene-3,3′-dicamphor-10,10′-disulfonic acid (TCDCS) and n-hexyl 2-(4-dimethylamino-2-hydroxybenzoyl)benzoate (DHB-BH)} which were dissolved in ethanol and 2% ketoprofen (KP) were applied on the auricle, and followed by WA irradiation at 40 J/cm^2.
The ear thickness was measured 24 hours after the WA irradiation, and an increase from the ear thickness prior to the start of the test was calculated.

Balb/c mice [2] = experiment: Murine auricular lymph node test 2 (modified LLNA, lymph node weight after ketoprofen + UVA); conditions: test substance 2% with KP 2%; UVA 20 J/cm^2, three days; lymph node removed after 5 days; toward the KP group
Protocol: Detection of a skin symptom due to an immunological mechanism resulting from KP upon photo-irradiation was carried out by other modified method of the above LLNA. Namely, as a test animal, Balb/c mice (female, 8-12 weeks old) were used. A test substance of 2% concentration and KP of 2% concentration which were dissolved in acetone—olive oil (4:1, v/v) or acetone—olive oil—physiological saline (3:3:1, v/v) were applied on the back of the pinna, and followed by UVA irradiation at 20 J/cm^2. This treatment inducing sensitization was carried out for three days consecutively. After 5 days from the start of the sensitization, the murine auricular lymph node was removed, and pooled in PBS. Then, PBS attached to the removed lymph node was sufficiently wiped up, and weighed. […]

Balb/c mice [3] = experiment: Murine local lymph node test 1 (modified LLNA, 3H-TdR uptake after ketoprofen + UVA); conditions: UVA 20 J/cm^2, 3 days, toward the KP group
Protocol: Detection of a skin symptom due to an immunological mechanism resulting from KP upon photo-irradiation was carried out by a modified method of Murine Local Lymph Node Assay (LLNA) proposed by The Interagency Coordinating Committee on the Validation of Alternative Methods (ICCVAM). Namely, as a test animal, Balb/c mice (female, 8-12 weeks old) were used. The test substance {4-tert-butyl-4′-methoxydibenzoylmethane (BM-DBM)} and 2% ketoprofen (KP) which were dissolved in acetone—olive oil (4:1, v/v) were applied on the back of the pinna, and followed by UVA irradiation at 20 J/cm^2. This treatment inducing sensitization was carried out for 3 days consecutively. After 5 days from the start of sensitization, a ^3H-methylthymidine (3H-TdR)/PBS solution of 20μCi per mouse was injected in the tail vein, and after 5 hours, the auricular lymph node was removed. The removed lymph node was made into a single lymph cell suspension by a cell strainer, then washed two times with PBS, and let it stand in 5% trichloroacetic acid (TCA) solution at 4° C. overnight to precipitate DNA. The precipitate was suspended in 1 ml of 5% TCA solution and a radiation activity was measured by a liquid scintillation counter.

[4] = test system: Hartley strain guinea pig; experiment: Photo-sensitization test using guinea pigs (modified Adjuvant and Strip method); conditions: 2% test substance with 2% KP in ethanol, UVA 10 J/cm^2, toward the KP group
Protocol: An effect exerted by the UV blocker to skin symptoms due to an immunological mechanism resulting from KP upon photo-irradiation was further examined by a modified method of the Adjuvant and Strip method of Sato et al. (Nishinihon Hifuka, 42, 831-837 (1980)) using guinea pigs. That is, the cervical back of a white female Hartley strain guinea pig (eight guinea pigs per group) was depilated, and the adjuvant was administered to four corners of 2×2 cm, and then, 2% ketoprofen (KP) solution, or 2% KP and 2% test substance {4-tert-butyl-4′-methoxydibenzoylmethane (BM-DBM)} solution, which were dissolved in ethanol, were applied on the above parts of 2×2 cm under an open condition, and after 1 hour, UVA (10 J/cm^2) was irradiated. This treatment of sensitization induction was carried out successively for 5 days. […] Skin reactions after 24 hours and 48 hours from the irradiation were evaluated according to the above standard of Sato et al. The suppression effect by BM-DBM to the skin symptoms due to the immunological mechanism resulting from KP upon photo-irradiation was evaluated by the erythema/edema suppression ratio (%) toward the KP group.

[5] = test substance conc. 0.5% in ethanol with 2% ketoprofen on the auricle, ear thickness 24 hours after irradiation

| Compound | Ear edema suppression ratio (%) (Balb/c mice [1]; [5]) | Suppression ratio (%) in the weight increase of the auricular lymph node (Balb/c mice [2]) | further results |
| --- | --- | --- | --- |
| 2-ethylhexyl dimethoxybenzylidenedioxoimidazolidinepropionate [DB-DIH] | 34% |  |  |
| O=C(c1ccc(O)cc1O)c1ccc(O)cc1O [2,2′,4,4′-Tetrahydroxybenzophenone, reference compound] |  | −32% |  |
| COc1ccc(O)c(-n2nc3ccccc3n2)c1 [2-(2′-Hydroxy-5′-methoxyphenyl)-bezotriazole] |  | 4% |  |
| CCCCC(CC)COC(=O)C=Cc1ccc(OC)cc1 (centres unmarked) [2-Ethylhexyl 4-methoxycinnamate] |  | 20% |  |
| Nc1ccc(C(=O)O)cc1 [4-Aminobenzoic acid, reference compound] |  | −39% |  |
| COc1ccc(C(=O)CC(=O)c2ccc(C(C)(C)C)cc2)cc1 [BM-DBM, 4-tert-butyl-4′-methoxydibenzoylmethane] | 98% | 88% | Ear edema suppression ratio (%) (Balb/c mice [1]; test substance conc. 0.1% with 2% ketoprofen, 24 hours after irradiation): 41%; Ear edema suppression ratio (%) (Balb/c mice [1]; test substance conc. 0.3% with 2% ketoprofen, 24 hours after irradiation): 81%; ^3H-TdR uptake suppression ratio(%) (Balb/c mice [3]; BM-DBM concentration 0.06% with 2% ketoprofen in acetone-olive oil (4:1), auricular lymph node): 30%; ^3H-TdR uptake suppression ratio(%) (Balb/c mice [3]; BM-DBM concentration 0.13% with 2% ketoprofen): 51%; ^3H-TdR uptake suppression ratio(%) (Balb/c mice [3]; BM-DBM concentration 0.25% with 2% ketoprofen): 24%; ^3H-TdR uptake suppression ratio(%) (Balb/c mice [3]; BM-DBM concentration 0.50% with 2% ketoprofen): 94%; ^3H-TdR uptake suppression ratio(%) (Balb/c mice [3]; BM-DBM concentration 1.00% with 2% ketoprofen): 99%; Erythema/Edema suppression ratio (%) After 24 hrs ([4]; skin reaction 24 hours after photo-induction irradiation): 69%; Erythema/Edema suppression ratio (%) After 48 hrs ([4]; skin reaction 48 hours after photo-induction irradiation): 74% |
| CCCCCCOC(=O)c1ccccc1C(=O)c1ccc(N(C)C)cc1O [DHB-BH, n-hexyl 2-(4-dimethylamino-2-hydroxybenzoyl)benzoate] | 84% |  |  |
| CCOC(=O)c1ccc(N)cc1 [Ethyl 4-aminobenzoate] |  | 43% |  |
| O=C(OCCO)c1ccccc1O [Ethylene glycol monosalicylate, reference compound] |  | −68% |  |
| COc1ccc(C(=O)c2ccccc2)c(O)c1 [Oxybenzone] |  | 56% |  |
| O=C(Oc1ccccc1)c1ccccc1O [Phenyl salicylate, reference compound] |  | 0% |  |
| CC1(C)C2CCC1(CS(=O)(=O)O)C(=O)/C2=C\c1ccc(/C=C2/C(=O)C3(CS(=O)(=O)O)CCC2C3(C)C)cc1 [TP-DCS, terephthalylidene-3,3′-dicamphor-10,10′-disulfonic acid] | 65% | 63% |  |
